Results as given in patent publication US8987313B2, “Inhibitors of cytochrome P450” (Gilead Sciences, Inc., priority 2010, dated 2015).
Read-outs that look alike come from different tables or passages of the source.

Target: CYP3A4 (Homo sapiens (Human), UniProt P08684)
Experiment: CYP3A Inhibition Assay (human hepatic microsomes; midazolam 1'-hydroxylase and testosterone 6β-hydroxylase activities)
Settings: pooled human hepatic microsomal fraction
Description: Pooled (n≧15 donors) human hepatic microsomal fraction was obtained from BD-Gentest (Woburn, Mass.) who also supplied hydroxy-terfenadine, 4′-hydroxydiclofenac and NADPH regenerating system. Ritonavir was prepared from commercial Norvir® oral solution (Abbott Laboratories, Abbott Park, Ill.). Other reagents were from Sigma-Aldrich (St. Louis, Mo.) and included terfenadine, fexofenadine, BRL 15572, diclofenac and mefenamic acid.
Incubations were performed in duplicate in 50 mM potassium phosphate buffer, pH 7.4 with NADPH regenerating system used as described by the manufacturer. […] The final substrate concentrations used were equal to the apparent Km values for the activities determined under the same conditions. Inhibitors were dissolved in DMSO, and the final concentration of DMSO, from both substrate and inhibitor vehicles, was 1% (v/v). Incubations were performed at 37° C. with shaking and were initiated by addition of substrate. Aliquots were then removed at […]. Samples were quenched by treatment with an acetonitrile, formic acid, water (94.8%/0.2%/5%, v/v/v) mixture containing internal standard. Precipitated protein was removed by centrifugation at 3000 rpm for […] and aliquots of the supernatant were then subjected to LC-MS analysis.
The LC-MS system consisted of a Waters Acquity UPLC, with a binary solvent manager and a refrigerated (8° C.) sample organizer and sample manager, interfaced to a Micromass Quattro Premier tandem mass spectrometer operating in electrospray ionization mode. The column was a Waters Acquity UPLC BEH C18 2.1×50 mm, […]. Mobile phases consisted of mixtures of acetonitrile, formic acid and water, the composition for mobile phase A being 1%/0.2%/98.8% (v/v/v) and that for mobile phase B being 94.8%/0.2%/5% (v/v/v). The injection volumes were 5 μL and the flow rate was 0.8 mL/min. Concentrations of metabolites were determined by reference to standard curves generated with authentic analytes under the same conditions as the incubations.
IC50 values (the concentration of inhibitor reducing CYP3A activity by 50%) were calculated by non-linear regression using GraphPad Prism 4.0 software and a sigmoidal model.
For midazolam hydroxylase determination the final concentrations of microsomal protein and […] substrate were 0.25 mg/mL and 2.5 μM, respectively, and the LC-MS internal standard was 1α-hydroxytriazolam. […] After incubation at 37° C. for 5 minutes, metabolic reactions were terminated by treatment with quench solution containing the appropriate internal standard and were subsequently centrifuged before aliquots of the supernatant were removed and diluted with 0.1% (v/v) formic acid for LC-MS analysis.
For LC-MS analysis the column was a Phenomenex Synergi Max RP 4 μm column (50×2.0 mm) and the injection volume was 5 μL. The MS/MS ion current metabolite/internal standard peak area ratios (PAR) were measured on an Applied Biosystems SciEx API4000 triple quadrupole mass spectrometer coupled to a Leap CTC PAL autosampler with a 20 μL loop and a Shimadzu LC pump with a 25 μL mixer.

[1] = read-out: CYP3A4 IC50 (μM) (midazolam), midazolam 1'-hydroxylase activity
[2] = read-out: CYP3A4 IC50 (μM) (testosterone), testosterone 6β-hydroxylase activity

CYP3A4, sequence (P08684 whole entry): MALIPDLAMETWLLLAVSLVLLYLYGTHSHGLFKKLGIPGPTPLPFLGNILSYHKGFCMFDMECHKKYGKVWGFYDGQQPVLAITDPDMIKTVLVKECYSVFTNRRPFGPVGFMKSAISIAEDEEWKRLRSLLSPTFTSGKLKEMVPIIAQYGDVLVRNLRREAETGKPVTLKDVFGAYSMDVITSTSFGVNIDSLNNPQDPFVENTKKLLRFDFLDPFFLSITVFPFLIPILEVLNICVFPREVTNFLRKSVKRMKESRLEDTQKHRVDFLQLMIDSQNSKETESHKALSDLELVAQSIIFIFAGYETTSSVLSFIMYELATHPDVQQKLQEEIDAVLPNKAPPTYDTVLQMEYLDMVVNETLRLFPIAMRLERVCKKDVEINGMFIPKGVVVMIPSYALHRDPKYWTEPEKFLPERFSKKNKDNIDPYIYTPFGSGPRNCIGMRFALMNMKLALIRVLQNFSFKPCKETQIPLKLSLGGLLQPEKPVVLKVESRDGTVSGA

Structure (SMILES) | IC50 [1] [µM] | IC50 [2] [µM]
CC(C)c1nc(CN(C)C(=O)N2C[C@H](O)C[C@H]2C(=O)N[C@H](CC[C@H](Cc2ccccc2)NC(=O)OCc2cncs2)Cc2ccccc2)cs1 [Compound 5] | 0.16 | 0.23
CC(C)c1nc(CN(C)C(=O)N2C[C@@H](O)C[C@H]2C(=O)N[C@H](CC[C@H](Cc2ccccc2)NC(=O)OCc2cncs2)Cc2ccccc2)cs1 [Compound 8] | 0.17 | 0.24
CC(C)c1nc(CN(C)C(=O)N2C[C@H](O)C[C@H]2C(=O)N[C@@H](CC[C@@H](Cc2ccccc2)NC(=O)OCc2cncs2)Cc2ccccc2)cs1 [Compound 11] | 0.12 | 0.3
CC(C)c1nc(CN(C)C(=O)N2CS(=O)(=O)C[C@H]2C(=O)N[C@H](CC[C@H](Cc2ccccc2)NC(=O)OCc2cncs2)Cc2ccccc2)cs1 [Compound 18] | 0.16 | 0.26
CC(C)c1nc(CN(C)C(=O)NC2(C(=O)N[C@H](CC[C@H](Cc3ccccc3)NC(=O)OCc3cncs3)Cc3ccccc3)CCN(C)CC2)cs1 [Compound 21] | 0.19 | 0.34
CC(C)c1nc(CN(C)C(=O)N2CCN(C)C[C@H]2C(=O)N[C@H](CC[C@H](Cc2ccccc2)NC(=O)OCc2cncs2)Cc2ccccc2)cs1 [Compound 25] | 0.14 | 0.3
CC(C)c1nc(CN(C)C(=O)N2C[C@@H](N)C[C@H]2C(=O)N[C@H](CC[C@H](Cc2ccccc2)NC(=O)OCc2cncs2)Cc2ccccc2)cs1 [Compound 29] | 0.19 | 0.31
CN[C@H]1C[C@@H](C(=O)N[C@H](CC[C@H](Cc2ccccc2)NC(=O)OCc2cncs2)Cc2ccccc2)N(C(=O)N(C)Cc2csc(C(C)C)n2)C1 [Compound 30] | 0.17 | 0.36
CC(C)c1nc(CN(C)C(=O)N2C[C@@H](N(C)C)C[C@H]2C(=O)N[C@H](CC[C@H](Cc2ccccc2)NC(=O)OCc2cncs2)Cc2ccccc2)cs1 [Compound 31] | 0.15 | 0.33
CC(=O)N[C@H]1C[C@@H](C(=O)N[C@H](CC[C@H](Cc2ccccc2)NC(=O)OCc2cncs2)Cc2ccccc2)N(C(=O)N(C)Cc2csc(C(C)C)n2)C1 [Compound 36] | < 0.1 | 0.37
CC(C)c1nc(CN(C)C(=O)N2CCC[C@H]2C(=O)N[C@H](CC[C@H](Cc2ccccc2)NC(=O)OCc2cncs2)Cc2ccccc2)cs1 [Compound 39] | 0.13 | 0.26
CC(C)c1nc(CN(C)C(=O)N2CCC[C@@H]2C(=O)N[C@H](CC[C@H](Cc2ccccc2)NC(=O)OCc2cncs2)Cc2ccccc2)cs1 [Compound 42] | 0.11 | 0.25
CC(C)c1nc(CN(C)C(=O)N2Cc3nc[nH]c3C[C@H]2C(=O)N[C@H](CC[C@H](Cc2ccccc2)NC(=O)OCc2cncs2)Cc2ccccc2)cs1 [Compound 49] | 0.19 | 0.37
